Structures are written as SMILES. Where a name gives a salt, the structure may show the parent alone.

Chain of human active recombinant p38α-6His tagged (Q16539 whole entry): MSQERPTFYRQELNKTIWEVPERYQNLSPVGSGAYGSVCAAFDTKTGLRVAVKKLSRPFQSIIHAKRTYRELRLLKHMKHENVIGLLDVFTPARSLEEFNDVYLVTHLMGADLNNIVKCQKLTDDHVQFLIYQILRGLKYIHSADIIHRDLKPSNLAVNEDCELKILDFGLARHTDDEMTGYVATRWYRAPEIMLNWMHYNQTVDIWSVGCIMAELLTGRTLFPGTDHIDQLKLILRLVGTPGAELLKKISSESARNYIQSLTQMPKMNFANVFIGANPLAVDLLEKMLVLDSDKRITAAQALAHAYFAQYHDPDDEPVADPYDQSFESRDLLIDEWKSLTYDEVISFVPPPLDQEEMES

This experiment addresses human active recombinant p38α-6His tagged (Homo sapiens, UniProt Q16539). The experiment can be described thus: P38 Alpha Enzyme Assay (AlphaScreen, biotinylated-ATF2 substrate).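 Also: 0.5 nM final p38α, reaction started with ATP and run 45 min at 37 °C, phospho-ATF2 read by antibody-based AlphaScreen, background wells quenched with EDTA before ATP.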 The format is biochemical. To be noted: p38 alpha enzyme inhibition; means of replicate determinations; 4 h pre-incubation at 37° C.; SD of assay 0.2-0.3 log units. A general note: Bead proximity is the source of the signal in Alpha formats.
A word on the pIC50: it is the negative decadic logarithm of the IC50, by convention in mol/L. As to `Cc1ccc(C(=O)NC2CC2)cc1-n1ccnc(N[C@@H](c2ccccc2)[C@@H](C)CN2CCNC(=O)C2)c1=O` [Example 178, N-Cyclopropyl-4-methyl-3-[3-[[(1R,2S)-2-methyl-3-(3-oxo-1-piperazinyl)-1-phenylpropyl]amino]-2-oxo-1(2H)-pyrazinyl]-benzamide], the pIC50 was found to be 8.8.

As to `Cc1ccc(C(=O)NC2CC2)cc1-n1ccnc(NCc2ccccc2O)c1=O` [Example 68, N-Cyclopropyl-3-[3-[[(2-hydroxyphenyl)methyl]amino]-2-oxo-1(2H)-pyrazinyl]-4-methyl-benzamide], the pIC50 amounted to 7.6.

On to `Cc1ccc(C(=O)NC2CC2)cc1-n1ccnc(N[C@@H](c2ccccc2)[C@@H](C)CN2CCC(C)CC2)c1=O` [Example 170, N-Cyclopropyl-4-methyl-3-[3-[[(1R,2S)-2-methyl-3-(4-methyl-1-piperidinyl)-1-phenylpropyl]amino]-2-oxo-1(2H)-pyrazinyl]-benzamide], for which the pIC50 was determined as 8.9.

Regarding `Cc1ccc(C(=O)NC2CC2)cc1-n1ccnc(NCc2ccccc2Cl)c1=O` [Example 129, 3-[3-[[(2-Chlorophenyl)methyl]amino]-2-oxo-1(2H)-pyrazinyl]-N-cyclopropyl-4-methyl-benzamide], the pIC50 is recorded as 7.7.

Turning to `CONC(=O)c1ccc(C)c(-n2ccnc(N[C@@H](c3cccc4ccccc34)[C@@H](C)CN3CCCC3)c2=O)c1` [Example 158, N-Methoxy-4-methyl-3-[3-[[(1R,2S)-2-methyl-1-(1-naphthalenyl)-3-(1-pyrrolidinyl)propyl]amino]-2-oxo-1(2H)-pyrazinyl]-benzamide], the pIC50 was 9.

As for `Cc1ccc(C(=O)NC2CC2)cc1-n1cc(C#N)nc(NCc2ccccc2)c1=O` [Example 104, 3-[5-Cyano-2-oxo-3-[(phenylmethyl)amino]-1(2H)-pyrazinyl]-N-cyclopropyl-4-methyl-benzamide], the pIC50 is on record as 7.2.

One may read the IC50 as the point on the concentration scale where inhibition reaches its midpoint. `Cc1ccc(C(=O)NC2CC2)cc1-n1ccnc(NCC2(c3ccccc3)CCN(C)CC2)c1=O` [Example 35, N-Cyclopropyl-4-methyl-3-[3-[[(1-methyl-4-phenyl-4-piperidinyl)methyl]amino]-2-oxo-1(2H)-pyrazinyl]-benzamide]: the IC50 was 251 nM.

`Cc1ccc(CCNc2nccn(-c3cc(C(=O)NC4CC4)ccc3C)c2=O)cc1` [Example 74, N-Cyclopropyl-4-methyl-3-[3-[[2-(4-methylphenyl)ethyl]amino]-2-oxo-1(2H)-pyrazinyl]-benzamide]: the pIC50 is reported as 6.7.

As to `Cc1c(F)cc(C(=O)NC2CC2)cc1-n1ccnc(NC2(c3ccccc3OCCNCCO)CC2)c1=O` [Example 260, N-Cyclopropyl-3-fluoro-5-[3-[[1-[2-[2-[(2-hydroxyethyl)amino]ethoxy]phenyl]cyclopropyl]amino]-2-oxo-1(2H)-pyrazinyl]-4-methyl-benzamide], the pIC50 was 10.3.

With `CNCCCOc1ccccc1C(C)(C)Nc1nccn(-c2cc(C(=O)NC3CC3)ccc2C)c1=O` [Example 164, N-Cyclopropyl-4-methyl-3-[3-[[1-methyl-1-[2-[3-(methylamino)propoxy]phenyl]ethyl]amino]-2-oxo-1(2H)-pyrazinyl]-benzamide], the pIC50 is recorded as 9.6.

As to `CNCCOc1ccccc1C(C)(C)Nc1nccn(-c2cc(C(=O)N3CCC3)ccc2C)c1=O` [Example 221, 1-[4-Methyl-3-[3-[[1-methyl-1-[2-[2-(methylamino)ethoxy]phenyl]ethyl]amino]-2-oxo-1(2H)-pyrazinyl]benzoyl]-azetidine], the pIC50 was found to be 6.7.

In the case of `Cc1ccc(C(=O)NC2CC2)cc1-n1ccnc(NCCCN2CCOCC2)c1=O` [Example 6, N-Cyclopropyl-4-methyl-3-[3-[[3-(4-morpholinyl)propyl]amino]-2-oxo-1(2H)-pyrazinyl]-benzamide], the pIC50 is on record as 6.5.

`CNCCOc1ccccc1C(C)(C)Nc1nccn(-c2cc(C(=O)NC3CC3)ccc2Cl)c1=O` [Example 330, 4-Chloro-N-cyclopropyl-3-[3-[(1-methyl-1-{2-[2-(methylamino)ethoxy]phenyl}ethyl)amino]-2-oxopyrazin-1(2H)-yl]benzamide]: the pIC50 was 9.4.

On to `Cc1ccc(C(=O)NC2CC2)cc1-n1ccnc(NC(C)(C)c2ccccc2OC2CNC2)c1=O` [Example 215, N-Cyclopropyl-4-methyl-3-[3-[[1-[2-(3-azetidinyloxy)phenyl]-1-methylethyl]amino]-2-oxo-1(2H)-pyrazinyl]-benzamide], for which the pIC50 came out at 9.6.

Turning to `COc1ccccc1[C@H](Nc1nccn(-c2cc(C(=O)NC3CC3)ccc2C)c1=O)[C@@H](C)CO` [Example 274, N-Cyclopropyl-3-[3-[[(1R,2R)-3-hydroxy-1-(2-methoxyphenyl)-2-methylpropyl]amino]-2-oxo-1(2H)-pyrazinyl]-4-methyl-benzamide], the negative-log IC50 (pIC50) worked out at 8.7.

Regarding `COCCCNc1nccn(-c2cc(C(=O)NC3CC3)ccc2C)c1=O` [Example 8, N-Cyclopropyl-3-[3-[(3-methoxypropyl)amino]-2-oxo-1(2H)-pyrazinyl]-4-methyl-benzamide], the pIC50 turned out to be 6.4.

`Cc1ccccc1[C@H](Nc1nccn(-c2cc(C(=O)NC3CC3)ccc2C)c1=O)[C@@H](C)CO` [Example 272, N-Cyclopropyl-3-[3-[[(1R,2R)-3-hydroxy-1-(2-methylphenyl)-2-methylpropyl]amino]-2-oxo-1(2H)-pyrazinyl]-4-methyl-benzamide]: the pIC50 is given as 8.5.

In the case of `Cc1ccc(C(=O)NC2CC2)cc1-n1ccnc(NCc2cccc3c2OCCO3)c1=O` [Example 91, N-Cyclopropyl-3-[3-[[(2,3-dihydro-1,4-benzodioxin-5-yl)methyl]amino]-2-oxo-1(2H)-pyrazinyl]-4-methyl-benzamide], the pIC50 is 7.9.

As for `COC[C@@H]1CCCN1C[C@@H](C)[C@@H](Nc1nccn(-c2cc(C(=O)NC3CC3)ccc2C)c1=O)c1ccccc1` [Example 150, N-Cyclopropyl-3-[3-[[(1R,2R)-3-[(2S)-2-(methoxymethyl)-1-pyrrolidinyl]-2-methyl-1-phenylpropyl]amino]-2-oxo-1(2H)-pyrazinyl]-4-methyl-benzamide], the pIC50 was found to be 7.9.

Take `CONC(=O)c1ccc(C)c(-n2ccnc(N[C@@H](c3ccccc3)[C@@H](C)CO)c2=O)c1` [Example 162, 3-[3-[[(1R,2R)-3-Hydroxy-2-methyl-1-phenylpropyl]amino]-2-oxo-1(2H)-pyrazinyl]-N-methoxy-4-methyl-benzamide, trifluoroacetate]: the pIC50 was 9.4.

As for `Cc1ccc(C(=O)NC2CC2)cc1-n1ccnc(NC2(c3ccccc3OCCNC[C@H](C)O)CC2)c1=O` [Example 230, N-Cyclopropyl-3-[3-[[1-[2-[2-[[(2S)-2-hydroxypropyl]amino]ethoxy]phenyl]cyclopropyl]amino]-2-oxo-1(2H)-pyrazinyl]-4-methyl-benzamide], the pIC50 came to 10.

Take `CCN(C)CCOc1ccccc1C1(Nc2nccn(-c3cc(C(=O)NC4CC4)ccc3C)c2=O)CC1` [Example 241, N-Cyclopropyl-3-[3-[[1-[2-[2-(ethylmethylamino)ethoxy]phenyl]cyclopropyl]amino]-2-oxo-1(2H)-pyrazinyl]-4-methyl-benzamide]: the pIC50 came out at 9.5.

For the compound `CONC(=O)c1ccc(C)c(-n2ccnc(N3CCNC(c4ccccc4)C3)c2=O)c1` (centres unmarked) [Example 126, N-Methoxy-4-methyl-3-[2-oxo-3-(3-phenyl-1-piperazinyl)-1(2H)-pyrazinyl]-benzamide], the pIC50 was determined as 8.1.

Values taken from US20120214822A1 (ASTRAZENECA AB, priority 2007, published 2012).
